Assay results from patent US20260167960A1, “METHODS AND COMPOSITIONS INCLUDING CONJUGATED DNAZYMES” (priority 2022, published 2026).

Test system: K. pneumoniae biofilm on silicon-coated latex Foley catheter
Experiment: Flow-cell catheter-associated biofilm, CFU assay
Type: cell-based
Details: 2-hour perfusion; 750 or 1000 mcg/mL meropenem; FIG. 6A
Description: Catheters were then connected to a flow-cell system containing fresh 10% TSB, and fresh media was perfused through the catheter by a pump at 10 ml/hour at 37° C. After 24 hours, treatment solution was perfused into the catheter at 10 ml/hour at 37° C. for 2 hours. Bacteria were scraped from the catheter into 1 ml PBS, and decimal serial dilutions were performed. All dilutions were plated by drop-plating technique on LB agar plates. LB agar plates were incubated at 37° C., and CFU were counted the next morning.
To test the effect of conjugated DNAzymes on established, catheter-associated biofilms, K. pneumoniae were incubated in catheters for 2 hours in static conditions and then for 24 hours with fresh media flow, after which they were subject to a 2-hour perfusion with 750 or 1000 mcg/mL meropenem, alone or in combination with tocopherol-conjugated or cholesterol-conjugated DNAzymes. After the incubation, the tubing was cut open and bacteria were scraped from the inside of the tubing, after which the CFU were determined by replating and observing colony formation. […] When CFU formation was tested in plates containing a much lower concentration (10 mcg/mL) of meropenem, the prior treatment with conjugated DNAzymes+meropenem nearly completely abolished colony formation (FIG. 6B), showing that antibiotic resistance was largely, if not entirely, abrogated in the disrupted biofilms.

Question: With `C[C@@H](O)[C@H]1C(=O)N2C(C(=O)O)=C(S[C@@H]3CN[C@H](C(=O)N(C)C)C3)[C@H](C)[C@H]12` [meropenem] as the compound, how does the “disruption of established catheter-associated biofilms (CFU)” value read?
Answer: not antibiotic alone, significantly disrupted the established biofilms
